Experimental findings from US20220135591A1, “HETEROCYCLIC COMPOUNDS AS INHIBITORS OF MONOACYLGLYCEROL LIPASE (MAGL)” (Hoffmann-La Roche Inc., priority 2019, published 2022) are described below.

Molecules are shown by their SMILES.

This test has as its target T1, MAGL (recombinant wild-type) (Homo sapiens, UniProt Q99685).
T1 sequence (Q99685 1-303): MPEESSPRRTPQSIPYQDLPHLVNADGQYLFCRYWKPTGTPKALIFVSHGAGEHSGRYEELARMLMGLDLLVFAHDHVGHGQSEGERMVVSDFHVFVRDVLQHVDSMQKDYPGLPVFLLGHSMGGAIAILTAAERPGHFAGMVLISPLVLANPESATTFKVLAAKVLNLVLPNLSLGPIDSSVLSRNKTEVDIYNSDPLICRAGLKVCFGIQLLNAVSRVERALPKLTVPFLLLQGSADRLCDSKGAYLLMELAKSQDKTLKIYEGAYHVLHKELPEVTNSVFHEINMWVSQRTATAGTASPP
Put plainly: 4-NPA assay: MAGL inhibitory activity by hydrolysis of 4-nitrophenylacetate, absorbance at 405 nm. The note with it: 4-NPA assay (values without footnote [b]). It counts as biochemical. Put shortly: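 Final assay: 1 nM MAGL and 300 μM 4-nitrophenylacetate in 50 mM Tris, 1 mM EDTA, at RT. Compounds (25 μM–1.7 nM, 3-fold steps) were preincubated 15 min with enzyme. A405 was read 5 min after substrate addition and again after 80 min; activity was taken as the difference between reads.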

As to `Cc1ccc2oc(N3CCN(C(=O)c4cnc(N5CC(OC(C)C(F)(F)F)C5)c(C)c4)CC3)nc2n1` (stereo not drawn) [Example 216, (5-methyl-6-(3-((1,1,1-trifluoropropan-2-yl)oxy)azetidin-1-yl)pyridin-3-yl)(4-(5-methyloxazolo[4,5-b]pyridin-2-yl)piperazin-1-yl)methanone], the IC50 is 0.113 µM. Turning to `Cc1ccc2oc(N3CCN(C(=O)c4ccc(N5CC(OC(C)C(F)(F)F)C5)cc4C)CC3)nc2n1` (stereo not drawn) [Example 211, (2-methyl-4-(3-((1,1,1-trifluoropropan-2-yl)oxy)azetidin-1-yl)phenyl)(4-(5-methyloxazolo[4,5-b]pyridin-2-yl)piperazin-1-yl)methanone], the IC50 amounted to 0.346 µM. With `Cc1ccc2oc(N3CCN(C(=O)c4ccc(-c5noc(C(C)(C)CO)n5)cc4)CC3)nc2n1` [Example 7, (4-(5-(1-hydroxy-2-methylpropan-2-yl)-1,2,4-oxadiazol-3-yl)phenyl)(4-(5-methyloxazolo[4,5-b]pyridin-2-yl)piperazin-1-yl)methanone], the IC50 was 0.262 µM. Next, `CC(OC1CN(c2ccc(C(=O)N3CCN(c4nc5nc(Cl)ccc5o4)CC3)cc2)C1)C(F)(F)F` (stereo not drawn) [Example 208, (4-(5-chlorooxazolo[4,5-b]pyridin-2-yl)piperazin-1-yl)(4-(3-((1,1,1-trifluoropropan-2-yl)oxy)azetidin-1-yl)phenyl)methanone]: 0.016 µM; `CC(=O)Cc1nc(-c2ccc(C(=O)N3CCN(c4nc5nc(Cl)ccc5o4)CC3)cc2)no1` [Example 23, 1-[3-[4-[4-(5-chlorooxazolo[4,5-b]pyridin-2-yl)piperazine-1-carbonyl]phenyl]-1,2,4-oxadiazol-5-yl]propan-2-one]: 1.55 µM; `CC1(Cn2cnc(-c3ccc(C(=O)N4CCN(c5nc6nc(Cl)ccc6o5)CC4)cc3)n2)CC1` [Example 49, [4-(5-chlorooxazolo[4,5-b]pyridin-2-yl)piperazin-1-yl]-[4-[1-[(1-methylcyclopropyl)methyl]-1,2,4-triazol-3-yl]phenyl]methanone]: 0.013 µM.

As to `Cn1c(CC(C)(C)C)nnc1-c1ccc(C(=O)N2CCN(c3nc4nc(Cl)ccc4o3)CC2)cc1` [Example 73, [4-(5-chlorooxazolo[4,5-b]pyridin-2-yl)piperazin--yl]-[4-[5-(2,2-dimethylpropyl)-4-methyl-1,2,4-triazol-3-yl]phenyl]methanone], the IC50 was found to be 0.409 µM.

For `CCCCc1nc2ccc(C(=O)N3CCN(c4nc5nc(C)ccc5o4)CC3)cc2o1` [Example 263, (2-butyl-1,3-benzoxazol-6-yl)-[4-(5-methyloxazolo[4,5-b]pyridin-2-yl)piperazin-1-yl]methanone], the IC50 is 0.181 µM. On to `CC1CN(c2nc3nc(Cl)ccc3o2)CCN1C(=O)c1ccc(-c2noc(C(C)(C)C)n2)cc1` (stereo not drawn) [Example 45, [4-(5-tert-butyl-1,2,4-oxadiazol-3-yl)phenyl]-[4-(5-chlorooxazolo[4,5-b]pyridin-2-yl)-2-methyl-piperazin-1-yl]methanone], for which the 50% inhibitory concentration (IC50) was 0.072 µM.

For `Cc1ccc2oc(N3CCN(C(=O)c4ccc(N5CC(O[C@@H](C)C(F)(F)F)C5)cc4)CC3)nc2n1` [Example 200, (S)-(4-(5-methyloxazolo[4,5-b]pyridin-2-yl)piperazin-1-yl)(4-(3-((1,1,1-trifluoropropan-2-yl)oxy)azetidin-1-yl)phenyl)methanone], the IC50 stood at 0.015 µM.

Turning to `CC(C)(C)c1nnc(-c2ccc(C(=O)N3CCN(c4nc5nc(Cl)ccc5o4)CC3)cc2)o1` [Example 30, [4-(5-tert-butyl-1,3,4-oxadiazol-2-yl)phenyl]-[4-(5-chlorooxazolo[4,5-b]pyridin-2-yl)piperazin-1-yl]methanone; 2,2,2-trifluoroacetic acid], the IC50 came out at 0.068 µM. Consider `Cc1ccc2oc(N3CCN(C(=O)c4cc(Cl)cc(N5CCC(F)(F)CC5)c4)CC3)nc2n1` [Example 177, [3-chloro-5-(4,4-difluoropiperidin-1-yl)phenyl]-[4-(5-methyl-[1,3]oxazolo[4,5-b]pyridin-2-yl)piperazin-1-yl]methanone], for which the IC50 was determined as 3.16 µM. Regarding `Cc1ccc2oc(N3CCN(C(=O)c4cc(OCC5(C(F)(F)F)CC5)cc(-c5ccc(CO)cc5)c4)CC3)nc2n1` [Example 185, [3-[4-(hydroxymethyl)phenyl]-5-[[1-(trifluoromethyl)cyclopropyl]methoxy]phenyl]-[4-(5-methyl-[1,3]oxazolo[4,5-b]pyridin-2-yl)piperazin-1-yl]methanone], the IC50 was determined as 0.302 µM. Next, `O=C(c1cnc(N2CCC3(C2)CC3(F)F)c(F)c1)N1CCN(c2nc3nc(Cl)ccc3o2)CC1` (stereo not drawn) [Example 230, (4-(5-chlorooxazolo[4,5-b]pyridin-2-yl)piperazin-1-yl)(6-(1,1-difluoro-5-azaspiro[2.4]heptan-5-yl)-5-fluoropyridin-3-yl)methanone]: 0.056 µM. Take `Cc1ccc2oc(N3CCN(C(=O)c4c(F)cc(N5CC(OC(C)C(F)(F)F)C5)cc4F)CC3)nc2n1` (stereo not drawn) [Example 212, (2,6-difluoro-4-(3-((1,1,1-trifluoropropan-2-yl)oxy)azetidin-1-yl)phenyl)(4-(5-methyloxazolo[4,5-b]pyridin-2-yl)piperazin-1-yl)methanone]: the 50% inhibitory concentration (IC50) amounted to 1.13 µM. Next, `Cc1ccc2oc(N3CCN(C(=O)c4ccc(C5(C)COC5)cc4)CC3)nc2n1` [Example 67, (4-(5-methyloxazolo[4,5-b]pyridin-2-yl)piperazin-1-yl)(4-(3-methyloxetan-3-yl)phenyl)methanone]: 0.367 µM; `Cc1ccc2oc(N3CCN(C(=O)c4ccc(-n5cnc(C(C)(C)C)n5)cc4)CC3)nc2n1` [Example 70, [4-(3-tert-butyl-1,2,4-triazol-1-yl)phenyl]-[4-(5-methyloxazolo[4,5-b]pyridin-2-yl)piperazin-1-yl]methanone]: 0.043 µM. The figure for `Cc1ccc2oc(N3CCN(C(=O)c4ccc(-c5noc(CC(C)(C)C)n5)cc4)CC3)nc2n1` [Example 5, (4-(5-methyloxazolo[4,5-b]pyridin-2-yl)piperazin-1-yl)(4-(5-neopentyl-1,2,4-oxadiazol-3-yl)phenyl)methanone] is 0.009 µM. Take `Cc1ccc2oc(N3CCN(C(=O)c4ccc(-c5cnn(CC(C)(C)C)c5)cc4)CC3)nc2n1` [Example 54, [4-[1-(2,2-dimethylpropyl)pyrazol-4-yl]phenyl]-[4-(5-methyloxazolo[4,5-b]pyridin-2-yl)piperazin-1-yl]methanone]: the IC50 stood at 0.006 µM.

With `Cc1ccc2oc(N3CCN(C(=O)c4ccc(OCc5cccc(Cl)c5)c(-c5ncc[nH]5)c4)CC3)nc2n1` [Example 199, [4-[(3-chlorophenyl)methoxy]-3-(1H-imidazol-2-yl)phenyl]-[4-(5-methyl-[1,3]oxazolo[4,5-b]pyridin-2-yl)piperazin-1-yl]methanone], the IC50 came out at 0.625 µM. The figure for `CC1(COc2ccc(C(=O)N3CCN(c4nc5nc(Cl)ccc5o4)CC3)cc2Cl)CC1` [Example 60, [3-chloro-4-[(1-methylcyclopropyl)methoxy]phenyl]-[4-(5-chlorooxazolo[4,5-b]pyridin-2-yl)piperazin-1-yl]methanone] is 0.046 µM.

In general, IC50 refers to the point on the concentration scale where inhibition reaches its midpoint.
